Reference: patent publication US8318704B2, “Modulation of neural stem cells and neural progenitor cells” (NeuroNova AB, priority 2002, dated 2012)

Key:
adult mouse NSC [1] = test: Intracellular ATP assay (cell number) in neurosphere-derived NSC; type: cell-based; details: for intracellular ATP levels, and hence NSC number, factor alone: S1P 100 nM or EGF 0.1 nM alone, 3 days (FIG. 8); for intracellular ATP levels, and hence cell number, relative to control: 3 days
Protocol: (§1) The anterior lateral wall of the lateral ventricle of 5-6 week old mice was enzymatically dissociated in 0.8 mg/ml hyaluronidase and 0.5 mg/ml trypsin in DMEM containing 4.5 mg/ml glucose and 80 units/ml DNase at 37° C. for 20 min. The cells were gently triturated and mixed with three volumes of Neurosphere medium (DMEM/F12, B27 supplement, 12.5 mM HEPES pH7.4) containing 20 ng/ml EGF (unless otherwise stated), 100 units/ml penicillin and 100 μg/ml streptomycin. After passing through a 70 μm strainer, the cells were pelleted at 160×g for 5 min. The supernatant was subsequently removed and the cells resuspended in Neurosphere medium supplemented as above, plated out in culture dishes and incubated at 37° C. Neurospheres were ready to be split approximately 7 days after plating.
(§2) To split neurosphere cultures, neurospheres were collected by centrifugation at 160×g for 5 min. The neurospheres were resuspended in 0.5 ml Trypsin/EDTA in HBSS (1×), incubated at 37° C. for 2 min and triturated gently to aid dissociation. Following a further 3 min incubation at 37° C. and trituration, 3 volumes of ice cold NSPH-media-EGF were added to stop further trypsin activity. The cells were pelleted at 220×g for 4 min, resuspended in fresh Neurosphere medium supplemented with 20 ng/ml EGF and 1 nM bFGF plated out and incubated at 37° C.
Mouse neurospheres, cultured as described above, from passage 2, were seeded in DMEM/F12 supplemented with B27 into a 96-well plate as single cells (10000 cells/well) to the substances to be measured were added at the concentrations indicated. After 3 days incubation, intracellular ATP was measured using the ViaLight kit (BioWhittaker) according to the manufacturer's instructions. S1P and LPA were purchased from Avanti Polar Lipids, Inc.
(§3) In assays including pertussis toxin, the toxin was added at 100 ng/ml 24 hours prior to the second passaging. New toxin was added at the same dose in combination with S1P or LPA to the cells and assayed as described above.
In the experiment analysing the combinatory effect of S1P and EGF, S1P at 100 nM was co-incubated with 0.1 nM EGF for 3 days.

adult mouse NSC [2] = test: 3H-thymidine incorporation into DNA of NSC; type: cell-based
Protocol: as §1, §2, §3
To determine thymidine incorporation into DNA, neurospheres were split and seeded in Neurosphere medium as single cells in 96-well plates, 10 000 cells/well. Substances to be measured were added in quadruplicates and cells were incubated at 37° C. for 3 days. 3H-thymidine, 10 uCi/ml, was present the last 24 hours. Cells were harvested on to a filter paper and radioactivity was measured. 3H-thymidine (6,7 Ci/mmol) was from PerkinElmer.

[3] = test system: new born cells in the caudate putamen; test: Intracerebroventricular infusion, BrdU-positive cells in caudate putamen; type: in vivo, rat; details: S1P 10 μM pump concentration, lateral ventricle, 0.5 μl/hr for 14 days
Protocol: Arrival of animals: 06.1102 (30 animals), 13.11.02 (30 animals) and 20.11.02 (10 animals): Male Wistar rats, ca. 270 g, Harlan-Winkelmann Germany;
Brain infusion kit II; Alzet osmotic mini-pump model 2002 (volume of pump: 200 μl, plus ca. 30-50 μl volume in tubing/flow-moderator; pumping rate: 0.5 μl/h (=12 μl/d) for 14 days; vehicle solution aCSF (artificial cerebrospinal fluid: 148 mM NaCl, 3 mM KCl, 1.4 mM CaCl2, 0.8 mM MgCl2, 1.5 mM Na2HPO4, 0.2 mM NaH2PO4, pH 7.4, sterile filtration; stored at −20° C.
provided as 1 mg solid, dissolved in DMSO, aliquoted and kept in freezer, thawed and added aCSF to make pump solution, 0.1% DMSO maximum. […]
Quantification in ipsilateral hemisphere: two slices (see point “Immunohistochemistry”) counting 2× one box (0.25 mm^2) in caudate putamen on each section.
S1P (10 μM pump concentration) or vehicle, and BrdU (1 mg/ml pump concentration) was infused into the lateral ventricle of adult male Wistar rats at a rate of 0.5 μl/hr for 14 days. […] BrdU incorporated into the nuclei of proliferating cells was detected by DAB-immunohistochemistry. […] For quantification (FIG. 10), sections were taken in duplicate for each animal and counted manually (see above Methods). Results are expressed as the mean±SEM number of BrdU positive cells/0.25 mm^2 (S1P n=8) (Vehicle n=12) (**p<0.005 relative to Vehicle).

[4] = in vitro EC50 listed in the handling of substances table
primary adult mouse NSC = test: Primary NSC proliferation and neurosphere formation without growth factors; type: cell-based; details: LPA 10 μM, no EGF, 7 days (FIG. 9)
Protocol: as §1
Anterior lateral wall of the lateral ventricle was dissociated as described in the Methods above (Method A), and the cells resuspended in Neurosphere medium without EGF. The cell suspension was divided into a 24-well plate with triplicates of control (no addition), LPA treated and EGF (1 nM) treated cells. The final concentration of LPA was 10 μM. After 7 days the spheres were counted, inspected for growth and morphology and photographed using a Nikon Eclipse TE300 microscope and Nikon Spot Insight camera.

EC50 [4] [nM] | Molecule | intracellular ATP levels, and hence NSC number, factor alone (adult mouse NSC [1]) | intracellular ATP levels, and hence cell number, relative to control (adult mouse NSC [1]; S1P 1-100 nM, non-adherent conditions (FIG. 4A)) | incorporation of tritiated thymidine relative to control (adult mouse NSC [2]; S1P 1-100 nM, 3 days (FIG. 4B)) | BrdU labeling of cells in coronal sections through the caudate putamen relative to vehicle ([3]; adult male Wistar rats) | number of BrdU positive cells/0.25 mm^2 (new born cells) in the caudate putamen relative to vehicle ([3]; n=8, p<0.005 (FIG. 10)) | intracellular ATP levels, and hence cell number, relative to control (adult mouse NSC [1]; LPA, two phases: 1-10 nM and 0.11-10 μM, non-adherent conditions (FIG. 5A)) | incorporation of tritiated thymidine relative to control (adult mouse NSC [2]; LPA 4 nM (FIG. 5B)) | incorporation of tritiated thymidine relative to control (adult mouse NSC [2]; LPA 10 nM (FIG. 5B)) | incorporation of tritiated thymidine relative to control (adult mouse NSC [2]; LPA 10 μM (FIG. 5B)) | sizes and number of neurospheres versus control (primary adult mouse NSC)
30 | CCCCCCCCCCCCC/C=C/[C@@H](O)[C@@H](N)COP(=O)(O)O [S1P, sphingosine-1-phosphate] | increased | statistically significant increase | Greater incorporation | substantially greater number | significant increase | – | – | – | – | –
– | EGF: mitogen (growth factor) for neural progenitors, from BD Biosciences | increased | – | – | – | – | – | – | – | – | –
– | lysophosphatidic acid [LPA] | – | – | – | – | – | statistically significant increases | Greater incorporation | no significant incorporation | Greater incorporation | observably greater
